Columns and labels:
Assay type in all cases: biochemical
Human recombinant HDAC4 [1] = molecular target: T1, Human recombinant HDAC4 (Homo sapiens (Human), UniProt P56524); assay: Test 1: HDAC4 assay (fluorogenic substrate, 10 μM acetyl-Gly-Ala-Lys(trifluoroacetyl)-AMC); conditions: Test 1 (values indicated by an asterisk)
Procedure: Test 1: HDAC4 Assay Description
Human recombinant HDAC4 was expressed in full length form (aa 2-1084) in Sf9 insect cells (obtained from ATCC) using baculovirus generated with Bac-to-Bac system (Invitrogen). Test compounds were serially diluted to reach final test concentrations from 0.003 μM to 100 μM. HDAC4 and test compounds were incubated in 25 mM Tris buffer pH 8.0 containing 137 mM NaCl, 2.7 mM KCl, 1 mM MgCl2 and 0.05% (w/v) bovine serum albumine for 2 hours at room temperature in presence of 10 μM of acetyl-Gly-Ala-Lys(E-trifluoroacetyl)-AMC (AMC=7-amino-4-methyl coumarin) in a final volume of 200 μl. Control wells with HDAC4 only (positive control) and without HDAC4 (negative control) were included on the microplate. Bovine trypsin (10 μl of a 0.4 mg/ml solution) was added and the plate incubated for additional 15 minutes at room temperature. The plate was placed in a fluorescence microplate reader, and read at an excitation wavelength of 360 nm and an emission wavelength of 450 nm with a cut-off filter of 435 nm. Fluorescence values for all wells containing HDAC4 (positive control and wells with test compound) were corrected by subtracting negative control fluorescence values, and IC50 values were calculated by fitting the dose-response curves to a 4-parameter logistic function.
HDAC4 IC50 values were obtained using Test 2, except those values indicated by an asterisk which were obtained using Test 1. NT=Not Tested

Human recombinant HDAC4 [2] = molecular target: T1, Human recombinant HDAC4; assay: Test 2: HDAC4 assay (fluorogenic substrate, 5 μM acetyl-Gly-Ala-Lys(ε-trifluoroacetyl)-AMC); conditions: Test 2 (values without asterisk)
In short: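 After the reaction, bovine trypsin (300 nM solution) was added for 15 min at RT to develop the signal; fluorescence read at 360/450 nm. No-enzyme background subtracted; IC50 from 4-parameter logistic fit of dose-response curves.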

[3] = molecular target: Human recombinant full length HDAC1 (Homo sapiens (Human), UniProt Q13547); assay: Test 3: HDAC1 assay; conditions: substrate 5 μM acetyl-Gly-Ala-Lys(acetyl)-AMC
In short: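 Baculovirus-expressed full-length human HDAC1 with 5 μM acetyl-Gly-Ala-Lys(acetyl)-AMC substrate, developed with trypsin 15 min at room temperature.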

[4] = molecular target: Human recombinant full length HDAC6 (Homo sapiens (Human), UniProt Q9UBN7); assay: Test 4: HDAC6 assay; conditions: Test 4; substrate 5 μM acetyl-Gly-Ala-Lys(acetyl)-AMC
In short: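 Baculovirus-expressed full-length recombinant human HDAC6 with 5 μM acetyl-Gly-Ala-Lys(acetyl)-AMC substrate, developed with trypsin 15 min at room temperature.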

T1 sequence (P56524 2-1084): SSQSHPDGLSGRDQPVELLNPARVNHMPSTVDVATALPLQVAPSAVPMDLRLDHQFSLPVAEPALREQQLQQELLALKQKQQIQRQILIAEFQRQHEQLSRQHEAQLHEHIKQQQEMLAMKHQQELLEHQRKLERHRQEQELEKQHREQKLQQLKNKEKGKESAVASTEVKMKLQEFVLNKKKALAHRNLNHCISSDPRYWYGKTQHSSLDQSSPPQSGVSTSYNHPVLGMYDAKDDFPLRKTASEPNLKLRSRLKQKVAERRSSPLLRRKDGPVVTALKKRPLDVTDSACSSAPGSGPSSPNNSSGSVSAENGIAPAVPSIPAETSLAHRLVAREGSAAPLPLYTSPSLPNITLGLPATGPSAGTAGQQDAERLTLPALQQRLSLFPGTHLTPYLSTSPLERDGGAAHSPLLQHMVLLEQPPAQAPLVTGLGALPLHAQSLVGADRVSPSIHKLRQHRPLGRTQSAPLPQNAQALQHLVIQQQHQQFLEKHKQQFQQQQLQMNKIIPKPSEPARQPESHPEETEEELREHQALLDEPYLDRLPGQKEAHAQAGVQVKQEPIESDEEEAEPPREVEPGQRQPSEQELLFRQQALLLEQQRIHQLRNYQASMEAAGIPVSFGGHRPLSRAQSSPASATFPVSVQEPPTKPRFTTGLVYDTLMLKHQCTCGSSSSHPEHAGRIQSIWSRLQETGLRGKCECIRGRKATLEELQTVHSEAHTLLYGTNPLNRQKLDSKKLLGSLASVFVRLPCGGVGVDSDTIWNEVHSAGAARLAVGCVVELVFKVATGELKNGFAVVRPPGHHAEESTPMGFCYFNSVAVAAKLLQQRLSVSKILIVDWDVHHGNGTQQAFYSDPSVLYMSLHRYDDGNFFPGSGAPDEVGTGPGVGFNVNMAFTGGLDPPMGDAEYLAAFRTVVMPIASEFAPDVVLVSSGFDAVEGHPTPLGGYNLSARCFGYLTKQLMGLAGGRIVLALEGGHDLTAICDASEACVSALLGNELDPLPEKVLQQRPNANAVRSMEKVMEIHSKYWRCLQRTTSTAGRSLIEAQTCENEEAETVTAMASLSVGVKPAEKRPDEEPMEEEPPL
Sequence of Human recombinant full length HDAC6 (Q9UBN7 whole entry): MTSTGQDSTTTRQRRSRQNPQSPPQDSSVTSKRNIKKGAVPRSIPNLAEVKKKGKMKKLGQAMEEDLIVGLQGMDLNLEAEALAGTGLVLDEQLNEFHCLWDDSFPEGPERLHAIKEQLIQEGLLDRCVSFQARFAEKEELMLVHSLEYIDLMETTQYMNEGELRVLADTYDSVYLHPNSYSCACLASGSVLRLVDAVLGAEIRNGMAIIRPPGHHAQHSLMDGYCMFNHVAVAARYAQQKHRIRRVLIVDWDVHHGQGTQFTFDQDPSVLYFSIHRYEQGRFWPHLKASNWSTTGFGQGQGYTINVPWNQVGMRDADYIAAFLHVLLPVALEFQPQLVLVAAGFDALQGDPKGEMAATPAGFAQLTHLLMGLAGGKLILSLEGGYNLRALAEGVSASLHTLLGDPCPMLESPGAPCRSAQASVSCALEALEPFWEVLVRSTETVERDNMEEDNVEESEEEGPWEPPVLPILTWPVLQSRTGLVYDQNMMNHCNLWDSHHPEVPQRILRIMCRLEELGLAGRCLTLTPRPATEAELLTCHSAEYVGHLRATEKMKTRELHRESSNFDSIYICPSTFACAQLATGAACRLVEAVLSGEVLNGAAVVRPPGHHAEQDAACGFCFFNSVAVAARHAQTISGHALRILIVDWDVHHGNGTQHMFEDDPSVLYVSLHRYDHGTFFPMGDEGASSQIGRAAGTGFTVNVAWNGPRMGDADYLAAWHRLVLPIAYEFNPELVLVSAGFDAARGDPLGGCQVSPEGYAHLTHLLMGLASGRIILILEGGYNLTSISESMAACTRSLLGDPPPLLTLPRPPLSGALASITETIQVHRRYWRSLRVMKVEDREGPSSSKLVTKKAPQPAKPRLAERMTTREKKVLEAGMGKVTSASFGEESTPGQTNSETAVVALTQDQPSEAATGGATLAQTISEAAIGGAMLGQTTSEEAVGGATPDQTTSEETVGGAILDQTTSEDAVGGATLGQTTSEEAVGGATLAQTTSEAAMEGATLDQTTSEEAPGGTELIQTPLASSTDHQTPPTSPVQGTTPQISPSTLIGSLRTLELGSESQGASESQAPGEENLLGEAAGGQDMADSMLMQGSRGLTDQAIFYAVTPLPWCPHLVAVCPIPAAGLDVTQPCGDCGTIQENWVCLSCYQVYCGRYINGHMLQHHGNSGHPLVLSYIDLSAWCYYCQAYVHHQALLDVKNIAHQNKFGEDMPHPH
Sequence of Human recombinant full length HDAC1 (Q13547 whole entry): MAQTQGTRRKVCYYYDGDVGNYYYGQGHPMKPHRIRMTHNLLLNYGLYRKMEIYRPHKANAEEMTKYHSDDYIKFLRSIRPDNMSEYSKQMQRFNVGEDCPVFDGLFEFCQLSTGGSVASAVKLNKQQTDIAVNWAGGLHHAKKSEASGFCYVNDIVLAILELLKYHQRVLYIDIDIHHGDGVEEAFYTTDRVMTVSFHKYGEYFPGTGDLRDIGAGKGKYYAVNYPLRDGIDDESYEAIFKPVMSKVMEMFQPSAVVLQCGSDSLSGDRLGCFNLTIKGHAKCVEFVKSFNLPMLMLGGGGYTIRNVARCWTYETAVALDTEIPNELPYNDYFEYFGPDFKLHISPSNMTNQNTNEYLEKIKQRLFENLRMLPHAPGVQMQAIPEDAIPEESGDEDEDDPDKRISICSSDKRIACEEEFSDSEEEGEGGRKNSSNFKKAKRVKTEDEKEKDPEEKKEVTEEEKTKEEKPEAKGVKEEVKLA

Row | IC50 (Human recombinant HDAC4 [1]) | IC50 (Human recombinant HDAC4 [2]) | IC50 [3] | IC50 [4] | SMILES
1 | 1.5 µM | – | – | – | CN(C)c1ccc(NC(=O)c2ccc(-c3noc(C(F)(F)F)n3)cc2)cc1 [Example 41, N-(4-(dimethylamino)phenyl)-4-(5-(trifluoromethyl)-1,2,4-oxadiazol-3-yl)benzamide]
2 | 0.09 µM | – | – | – | Cc1cc(NC(=O)c2ccc(-c3noc(C(F)(F)F)n3)cc2)ccn1 [Example 70, N-(2-methylpyridin-4-yl)-4-(5-(trifluoromethyl)-1,2,4-oxadiazol-3-yl)benzamide]
3 | 0.07 µM | – | – | – | O=S(=O)(Nc1cccnc1)c1ccc(-c2noc(C(F)(F)F)n2)cc1 [Example 100, N-(ppyridin-3-yl)-4-(5-(trifluoromethyl)-1,2,4-oxadiazol-3-yl)benzenesulfonamide]
4 | 0.2 µM | – | – | – | O=S(=O)(Nc1cccc(F)c1)c1ccc(-c2noc(C(F)(F)F)n2)cc1 [Example 106, N-(3-fluorophenyl)-4-(5-(trifluoromethyl)-1,2,4-oxadiazol-3-yl)benzenesulfonamide]
5 | 0.048 µM | – | – | – | CCN(CC)C[C@H](C)NC(=O)c1ccc(-c2noc(C(F)(F)F)n2)cc1 [Example 133, (S)—N-(1-(diethylamino)propan-2-yl)-4-(5-(trifluoromethyl)-1,2,4-oxadiazol-3-yl)benzamide]
6 | – | 0.00075 µM | 2.4 µM | 3.7 µM | CCCN(CC)C[C@@H](C)NC(=O)c1ccc(-c2noc(C(F)(F)F)n2)cc1 [Example 145, (R)—N-(1-(ethyl(propyl)amino)propan-2-yl)-4-(5-(trifluoromethyl)-1,2,4-oxadiazol-3-yl)benzamide]
7 | – | 0.0016 µM | 5.1 µM | 2.4 µM | CCCN(CC)C[C@@H](C)NC(=O)c1ccc(-c2noc(C(F)(F)F)n2)cc1F [Example 146, (R)—N-(1-(ethyl(propyl)amino)propan-2-yl)-2-fluoro-4-(5-(trifluoromethyl)-1,2,4-oxadiazol-3-yl)benzamide]
8 | – | 0.3 µM | > 10 µM | 6.7 µM | C[C@H](CN1CCOCC1)NC(=O)c1ccc(-c2noc(C(F)(F)F)n2)cc1 [Example 147, (R)—N-(1-morpholinopropan-2-yl)-4-(5-(trifluoromethyl)-1,2,4-oxadiazol-3-yl)benzamide]
9 | – | 0.38 µM | > 10 µM | 3.2 µM | C[C@H](CN1CCOCC1)NC(=O)c1ccc(-c2noc(C(F)(F)F)n2)cc1F [Example 148, (R)-2-fluoro-N-(1-morpholinopropan-2-yl)-4-(5-(trifluoromethyl)-1,2,4-oxadiazol-3-yl)benzamide]
10 | – | 0.0011 µM | 1.2 µM | 3.1 µM | CCCCN(C)C[C@@H](C)NC(=O)c1ccc(-c2noc(C(F)(F)F)n2)cc1 [Example 150, (R)—N-(1-(butyl(methyl)amino)propan-2-yl)-4-(5-(trifluoromethyl)-1,2,4-oxadiazol-3-yl)benzamide]
11 | – | 0.0018 µM | 2.7 µM | 2.6 µM | CCCCN(C)C[C@@H](C)NC(=O)c1ccc(-c2noc(C(F)(F)F)n2)cc1F [Example 151, (R)—N-(1-(butyl(methyl)amino)propan-2-yl)-2-fluoro-4-(5-(trifluoromethyl)-1,2,4-oxadiazol-3-yl)benzamide]
12 | – | 0.0084 µM | > 10 µM | 2.4 µM | CCN(C[C@@H](C)NC(=O)c1ccc(-c2noc(C(F)(F)F)n2)cc1F)C(C)C [Example 152, (R)—N-(1-(ethyl(isopropyl)amino)propan-2-yl)-2-fluoro-4-(5-(trifluoromethyl)-1,2,4-oxadiazol-3-yl)benzamide]
13 | – | 0.0036 µM | 1.8 µM | 3 µM | CN1CC[C@@H](NC(=O)c2ccc(-c3noc(C(F)(F)F)n3)cc2)C1 [Example 153, (R)—N-(1-methylpyrrolidin-3-yl)-4-(5-(trifluoromethyl)-1,2,4-oxadiazol-3-yl)benzamide]
14 | – | 0.11 µM | > 10 µM | 7.2 µM | CN1CCC[C@@H](NC(=O)c2ccc(-c3noc(C(F)(F)F)n3)cc2)C1 [Example 154, (R)—N-(1-methylpiperidin-3-yl)-4-(5-(trifluoromethyl)-1,2,4-oxadiazol-3-yl)benzamide]
15 | – | 0.012 µM | 2.9 µM | 2.6 µM | CCN(CC)CCNC(=O)c1ccc(-c2noc(C(F)(F)F)n2)cc1 [Example 155, N-(2-(diethylamino)ethyl)-4-(5-(trifluoromethyl)-1,2,4-oxadiazol-3-yl)benzamide]
16 | – | 0.00085 µM | 2.9 µM | 2.3 µM | C[C@H](CN(C)Cc1ccccc1)NC(=O)c1ccc(-c2noc(C(F)(F)F)n2)cc1 [Example 156, (R)—N-(1-(benzyl(methyl)amino)propan-2-yl)-4-(5-(trifluoromethyl)-1,2,4-oxadiazol-3-yl)benzamide]
17 | – | 0.04 µM | 6.1 µM | 3.4 µM | CNCCNC(=O)c1ccc(-c2noc(C(F)(F)F)n2)cc1 [Example 157, N-(2-(methylamino)ethyl)-4-(5-(trifluoromethyl)-1,2,4-oxadiazol-3-yl)benzamide]
18 | – | 0.36 µM | 8.8 µM | 1.8 µM | O=C(NCCNc1ccccc1)c1ccc(-c2noc(C(F)(F)F)n2)cc1 [Example 158, N-(2-(phenylamino)ethyl)-4-(5-(trifluoromethyl)-1,2,4-oxadiazol-3-yl)benzamide]

Row | SMILES | IC50 (Human recombinant HDAC4 [1]) | IC50 (Human recombinant HDAC4 [2]) | IC50 [3] | IC50 [4]
19 | O=C(NC1CC1)c1ccc(-c2noc(C(F)(F)F)n2)cc1 [Example 19, N-cyclopropyl-4-(5-(trifluoromethyl)-1,2,4-oxadiazol-3-yl)benzamide] | 0.12 µM | – | – | –
